Experiments:
memory and learning = assay: Effect on memory and learning in preclinical studies; format: in vivo
[1] = Japanese Unexamined Patent Publication No. 181,043 (1982); cited from earlier work
[2] = tested on: dopamine neuron, norepinephrine and serotonin neuron; assay: Activation of dopamine, norepinephrine and serotonin neuron
[3] = tested on: spontaneous movement of mice; assay: Spontaneous movement of mice; set-up: species or system SlC:ddy male mice; conditions: mouse, in vivo
Procedure: Effect of the test samples on the sponteneous movement of mice
The test sample was administered orally to SlC:ddy male mice. Immediately after, the amount of movement activity of the test mice was measured for 16 hours, at the time of 1, 2, 4, 8 and 16 hours respectively after the oral administration, by means of spontaneous movement measuring system (displacement measuring type).
Methamphetamine was used as the reference drug and distilled water was used as control sample.
The obtained results are shown in FIG. 1, columns and bars represent the mean±S.D. and statistical significance was evaluated by the multiple comparison test of Dunnet's type.

CC(C)CC(N(C)C)C1(c2ccc(Cl)cc2)CCC1 (centres unmarked) [N,N-dimethyl-1-[1-(4-chlorophenyl)cyclobutyl]-3-methylbutylamine]
effect on memory and learning (memory and learning): intensive effect on memory and learning
therapeutical effect as an antidepressant [1]: has a therapeutical effect as an antidepressant
activation of dopamine neuron in addition to both norepinephrine and serotonin neuron [2]: intensive activation of dopamine neuron in addition to both norepinephrine and serotonin neuron
effect on dopamine activity [2]: enhancing effect of dopamine activity
spontaneous movement [3]: increase of spontaneous movement

Reference: patent US4939175A, “Use of N,N-dimethyl-1-[1-(4-chlorophenyl)cyclobutyl]-3-methylbutylamine” (priority 1988, dated 1990)
